Source: ChEMBL document CHEMBL1201862, “PubChem BioAssay data set” (2004)
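Test compounds were applied to cells in 96-well plates for 48 hours at 5 doses. GI50 marks 50% less growth.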 Calls of active or inactive are those of the source. No stated cut-off is given here; in the data, active = GI50 up to about 1.1 µM and inactive = higher.

How the values were obtained:
Experiment in all cases: inhibition of tumour cell growth, NCI panel, 48 h
HOP-92 = system: HOP-92
SK-MEL-28 = system: SK-MEL-28
HL-60 = system: HL-60
SK-OV-3 = system: SK-OV-3
SF-539 = system: SF-539
HCT-116 = system: HCT-116
COLO 205 = system: COLO 205
NCI/ADR-RES = system: NCI/ADR-RES
UACC-62 = system: UACC-62
OVCAR-8 = system: OVCAR-8
MOLT-4 = system: MOLT-4
RPMI-8226 = system: RPMI-8226
SN12C = system: SN12C
M14 = system: M14
RXF 393 = system: RXF 393
EKVX = system: EKVX
UO-31 = system: UO-31
IGROV-1 = system: IGROV-1
NCI-H522 = system: NCI-H522
SF-268 = system: SF-268

Measured: GI50

CC(=O)O/C(=C1\C[C@H]2[C@@H]3CC=C4C[C@@H](OC(C)=O)CC[C@]4(C)[C@H]3CC[C@]2(C)C1=O)C(F)(F)F
inactive: HOP-92 8.24 µM | SK-MEL-28 14.9 µM | HL-60 3.51 µM | SK-OV-3 20.1 µM | SF-539 7.24 µM | HCT-116 6.15 µM | COLO 205 10.8 µM | NCI/ADR-RES 7.16 µM | UACC-62 8.77 µM | OVCAR-8 5.18 µM | MOLT-4 2.59 µM | RPMI-8226 4.08 µM | SN12C 8.97 µM | M14 7.19 µM | RXF 393 6.19 µM | EKVX 12.7 µM | UO-31 12.1 µM | IGROV-1 5.56 µM | NCI-H522 3.18 µM | SF-268 6.62 µM

CC(=O)Nc1oc(C)c(C)c1S(=O)(=O)c1ccc(Cl)cc1
inactive: HOP-92 > 100 µM | SK-MEL-28 95.3 µM | HL-60 97.7 µM | SK-OV-3 52.5 µM | SF-539 26.7 µM | HCT-116 55 µM | COLO 205 72.8 µM | NCI/ADR-RES 36 µM | UACC-62 42 µM | OVCAR-8 45.7 µM | MOLT-4 39.4 µM | RPMI-8226 35.6 µM | M14 63.8 µM | RXF 393 69.7 µM | EKVX 39.4 µM | UO-31 39 µM | IGROV-1 70 µM | NCI-H522 37.7 µM | SF-268 33.7 µM

Cc1ccc(C(=O)O)c(/C=C2\Cc3ccc(C)cc3C2=O)c1
inactive: HOP-92 > 100 µM | SK-MEL-28 78.9 µM | HL-60 28.6 µM | SF-539 20 µM | HCT-116 44.2 µM | COLO 205 51.4 µM | NCI/ADR-RES 71.8 µM | UACC-62 69.2 µM | OVCAR-8 61.5 µM | MOLT-4 33.6 µM | RPMI-8226 19.5 µM | SN12C 40.6 µM | M14 > 100 µM | RXF 393 42.3 µM | EKVX 98.9 µM | UO-31 62.1 µM | IGROV-1 > 100 µM | NCI-H522 96.8 µM | SF-268 41 µM

COc1cc(C2C(Cl)C(=O)N2c2c(C)n(C)n(-c3ccccc3)c2=O)ccc1O (stereo unspecified)
inactive: HOP-92 21.3 µM | HL-60 23.3 µM | SK-OV-3 29.6 µM | SF-539 16.3 µM | HCT-116 6.37 µM | COLO 205 16.3 µM | NCI/ADR-RES 30.3 µM | UACC-62 16 µM | OVCAR-8 19.4 µM | MOLT-4 15.1 µM | RPMI-8226 18.1 µM | SN12C 19.1 µM | M14 15.7 µM | RXF 393 18.1 µM | EKVX 35 µM | UO-31 16.9 µM | IGROV-1 14.1 µM | NCI-H522 13.6 µM | SF-268 24.9 µM

O=C1N/C(=N/N=C/C(O)C(O)C(O)C(O)CO)N/C1=C\c1c[nH]c2ccccc12 (stereo unspecified)
inactive: HOP-92 > 100 µM | SK-MEL-28 > 100 µM | HL-60 48.4 µM | SK-OV-3 > 100 µM | SF-539 > 100 µM | HCT-116 > 100 µM | COLO 205 > 100 µM | NCI/ADR-RES > 100 µM | UACC-62 > 100 µM | OVCAR-8 > 100 µM | MOLT-4 93.8 µM | RPMI-8226 89.7 µM | SN12C > 100 µM | M14 > 100 µM | RXF 393 > 100 µM | EKVX 34.6 µM | IGROV-1 > 100 µM | NCI-H522 54.1 µM | SF-268 > 100 µM

CCOC(=O)C(Cc1ccc(OC(=O)c2ccc(OC)cc2)cc1)NC(=O)C(F)(F)F (stereo unspecified)
inactive: HOP-92 45.8 µM | HL-60 > 100 µM | SK-OV-3 > 100 µM | SF-539 > 100 µM | HCT-116 > 100 µM | COLO 205 > 100 µM | NCI/ADR-RES > 100 µM | UACC-62 > 100 µM | OVCAR-8 > 100 µM | MOLT-4 > 100 µM | RPMI-8226 > 100 µM | SN12C > 100 µM | M14 > 100 µM | RXF 393 27.9 µM | EKVX > 100 µM | UO-31 > 100 µM | IGROV-1 45.3 µM | NCI-H522 > 100 µM | SF-268 35.6 µM

CCS(=O)(=O)CCn1c(=O)c2c(ncn2C)n(C)c1=O
inactive: HOP-92 > 100 µM | SK-MEL-28 > 100 µM | HL-60 > 100 µM | SF-539 > 100 µM | HCT-116 > 100 µM | COLO 205 > 100 µM | NCI/ADR-RES > 100 µM | UACC-62 > 100 µM | OVCAR-8 > 100 µM | MOLT-4 > 100 µM | RPMI-8226 > 100 µM | SN12C > 100 µM | M14 > 100 µM | RXF 393 > 100 µM | EKVX > 100 µM | UO-31 > 100 µM | IGROV-1 > 100 µM | NCI-H522 > 100 µM | SF-268 > 100 µM

NC(=O)c1cc2cc(Cl)cc(Cl)c2o/c1=N\c1ccc(F)cc1
inactive: HOP-92 31.9 µM | SK-MEL-28 21.9 µM | HL-60 64.1 µM | SK-OV-3 22.5 µM | HCT-116 17.3 µM | COLO 205 17.5 µM | NCI/ADR-RES 16 µM | UACC-62 23.3 µM | OVCAR-8 37.6 µM | MOLT-4 12.5 µM | RPMI-8226 26.5 µM | SN12C 16.7 µM | M14 20.3 µM | RXF 393 16.8 µM | EKVX 15.2 µM | UO-31 25.8 µM | IGROV-1 26.4 µM | NCI-H522 17.7 µM | SF-268 32.4 µM

COc1ccc(OC)c2sc(N3C(=O)/C(=C/c4cccc(Oc5ccccc5)c4)N=C3c3ccccc3)nc12
inactive: HOP-92 > 100 µM | SK-MEL-28 > 100 µM | HL-60 38 µM | SK-OV-3 > 100 µM | HCT-116 85.1 µM | COLO 205 51.8 µM | NCI/ADR-RES > 100 µM | UACC-62 > 100 µM | OVCAR-8 76 µM | MOLT-4 31.9 µM | RPMI-8226 38.8 µM | SN12C > 100 µM | M14 > 100 µM | RXF 393 > 100 µM | EKVX > 100 µM | UO-31 > 100 µM | IGROV-1 > 100 µM | NCI-H522 53.7 µM | SF-268 > 100 µM

CCOC(=O)/C=C/C(=O)O/C=C/[N+](=O)[O-]
inactive: HOP-92 > 100 µM | HL-60 > 100 µM | SK-OV-3 > 100 µM | SF-539 > 100 µM | HCT-116 > 100 µM | COLO 205 > 100 µM | NCI/ADR-RES > 100 µM | UACC-62 > 100 µM | OVCAR-8 > 100 µM | MOLT-4 > 100 µM | RPMI-8226 > 100 µM | SN12C > 100 µM | M14 > 100 µM | RXF 393 > 100 µM | EKVX > 100 µM | UO-31 > 100 µM | IGROV-1 > 100 µM | NCI-H522 > 100 µM | SF-268 > 100 µM
